We go through three substances from publication PMC3950666, “Cellular trafficking determines the exon skipping activity of Pip6a-PMO in mdx skeletal and cardiac muscle cells” (Nucleic Acids Research, 2013).

Read-outs that look alike come from different tables or passages of the source.

The conditions of series [1]: 1 µM concentration; cited from earlier work. The source says:
A full comparison of EC50 values is difficult since ...

The subject of series [2] is dystrophin pre-mRNA exon 23 in H2k mdx myotubes. Kind of series: Exon 23 skipping by nested RT-PCR in differentiated H2k mdx myotubes. Type of series: cell-based, mouse.
For series [3], the system named is dystrophin pre-mRNA exon 23 in C2C12 myotubes. Kind of series: Exon 23 skipping by nested RT-PCR in differentiated C2C12 myotubes. To be noted: serum-containing transfection media, 24 h post-treatment. The class given is cell-based, mouse. As to the method: Figure S3. Exon skipping efficiency of Pip6a-PMO in C2C12 skeletal muscle cells. C2C12 cells were differentiated for 6 days and thereafter incubated with Pip6a-PMO under serum condition (+S). Transfections were carried out for 4 h under serum conditions and cells were incubated further with serum-containing medium for 20 h. Exon skipping efficiency was evaluated on pre-mRNA levels by nested RT-PCR. Products were separated by gel electrophoresis and exon skipping values were derived from densitometric analysis. (Percentage of exon skipping (%ES) calculated as described in Figure S1 with n≥4).

Series [4] concerns H2k mdx myotubes. Kind of series: Cellular uptake by fluorescence spectroscopy in H2k mdx myotubes.
Procedure: After incubation with 3′-fluorescein labelled Pip6a-PMO or 3′-fluorescein-labelled PMO, cells were washed twice with PBS and lysed with 300 µl GLB buffer (Promega). In all, 100 µl of the lysate were transferred into black non-binding 96-well plates (Greiner) and fluorescence was measured on a Tecan plate reader (Ex 485 nm/Em 520 nm). Protein concentration was measured by a BCA kit (Pierce) on a Tecan plate reader (Abs 560 nm).
Series [5] concerns dystrophin pre-mRNA exon 23 in primary mdx cardiomyocytes. Briefly: Exon 23 skipping by nested RT-PCR in primary mdx cardiomyocytes. The class given is cell-based, mouse.
Series [6] has as its system dystrophin pre-mRNA exon 23 in primary wild-type cardiomyocytes. Kind of series: Exon 23 skipping by nested RT-PCR in primary wild-type cardiomyocytes. The class given is cell-based, mouse. To be noted: for %ES (percentage of exon skipping): 1000 nM, WT (healthy) cardiomyocytes, serum-containing medium, 24 h post-treatment, n ≥ 4.
Series [7] deals with dystrophin pre-mRNA exon 23 in H2k mdx myoblasts. Kind of series: Exon 23 skipping by nested RT-PCR in undifferentiated H2k mdx myoblasts. Type of series: cell-based, mouse.

Take “(RXRRBR)2 [B-PMO, PMO covalently linked to the (RXRRBR)2 B-peptide, previously described PPMO]”: the reported exon-skipping level in series [1] is listed as roughly 45%.
For “Ac-RXRRBRRXRYQFLIRXRBRXRB-OH [Pip6a-PMO, Pip6a peptide conjugated by amide linkage to the 5′-amino linker of the PMO; carries 3′-fluorescein label unless mentioned as unlabelled]”, the exon skipping result in series [2] (1 µM, statement of the discussion) is on record as “complete exon skipping”. In addition, the EC50 in series [2] (48 h post-treatment (4 h transfection, then 44 h serum-containing medium), serum condition (+S), read-out: EC50 at 48 h (exon 23 skipping)) was 20 nM; in series [2] (serum-free medium (-S), 24 h post-treatment, Prism 5.0 after normalization of the Δ23 skipping, read-out: EC50 (concentration required to achieve 50% exon 23 skipping)), 41 nM; in series [2] (serum-supplemented transfection medium (+S), 24 h post-treatment, Prism 5.0 after normalization, read-out: EC50 (exon 23 skipping)), 30 nM; in series [3] it was 107 nM; in series [5] (primary cardiomyocytes from neonatal mdx and wild-type mice, not distinguished, approximate) it was roughly 1000 nM; in series [7] (undifferentiated H2k mdx myoblasts, data not shown), 183 nM. In addition, in series [4] (250 nM, 4 h, EIPA 10 µM, 30 min pre-treatment, n ≥ 4), the “effect of EIPA on cellular delivery and exon-skipping activity” value is recorded as “only negligible effects”. For the same substance, in series [4] (250 nM, 4 h, chlorpromazine 30 µM, 30 min pre-treatment, n ≥ 4), the “effect of CPZ on cellular delivery and exon-skipping activity” value is recorded as “only negligible effects”. Also, the “effect of nystatin on uptake and exon 23-skipping efficiency” value in series [4] (250 nM, 4 h, nystatin 50 µM, 30 min pre-treatment, n ≥ 4) is listed as “pronounced effect”. In series [4] (H2k mdx cells, 4 h incubation, fluorescence spectroscopy), the “increase of uptake in myotubes versus myoblasts” value is 2 fold. In addition, in series [6], the “%ES (percentage of exon skipping)” value came to 44%. Besides, in series [6] (48 h post-treatment compared with 24 h, primary wild type cardiomyocytes, Supplementary Figure S7), the “change of exon skipping with 48 h incubation” value is listed as “did not increase significantly”. Also, the “EC50 in H2k mdx myoblasts relative to H2k mdx myotubes” value in series [7] (183 nM in myoblasts compared with myotubes) is given as roughly 6 times.
Take “PMO: phosphorodiamidate morpholino oligomer 5′-GGCCAAACCTCGGCTTACCTGAAAT-3′ with 5′-amino linker and 3′-fluorescein label, Gene Tools (morpholino, 5'-amino linker, 3'-fluorescein, chemistry not fully specified) [reference compound]”: in series [4] (1000 nM, 4 h incubation, cell lysate fluorescence Ex 485 nm/Em 520 nm), the “cellular uptake (fluorescence)” value was “no uptake”. For the same substance, the “%ES (percentage of exon skipping)” value in series [5] (1000 nM, mdx cardiomyocytes, serum-containing medium, 24 h post-treatment, n ≥ 4, listed as naked PMO) is reported as “failed to induce any exon skipping”; in series [6] (listed as naked PMO) it was “failed to induce any exon skipping”.
